# Calls of active or inactive are those of the source. The calls are words filed in the database; no cut-off is given here.
# Tests used:
# Format in all cases: cell-based
# L6 [1] = assay: Cytotoxicity against rat L6 cells assessed as reduction in cell viability at 10 to 40 uM after 16 hrs by MTT assay; details: l6, 16 h
# L6 [2] = assay: Activation of AMPK in rat L6 cells assessed as glucose uptake after 16 hrs
# L6 [3] = assay: Activation of AMPK in rat L6 cells assessed as glucose uptake at 40 uM in presence of AMPK inhibitor compound C after 8 hrs
# L6 [4] = assay: Activation of AMPK in rat L6 cells assessed as increase in AMPK phosphorylation at 40 uM by Western blot analysis
smiles,measurement,setting,value
CO/C(=C/C(=O)N1C(=O)C=C[C@@H]1C)C/C(=C/Cl)CNC(=O)CCCCC(C)(C)C,Activity,L6 [1],Non-Toxic
same,Activity,L6 [2],Dose-dependent effect
CO/C(=C/C(=O)N1C(=O)C=C[C@@H]1CC(C)C)CCNC(=O)CCCCC(C)(C)C,Activity,L6 [1],Non-Toxic
same,Activity,L6 [3],inactive
same,Activity,L6 [2],Dose-dependent effect
same,Activity,L6 [4],Active

# Reference: ChEMBL document CHEMBL4251724, “Ypaoamides B and C, Linear Lipopeptides from an Okeania sp. Marine Cyanobacterium” (J Nat Prod, 2018)
